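1) Cells in 96-well plates. 2) Compound, 48 h, 5 concentrations. 3) Linear interpolation between surrounding doses. 4) Unreached endpoint = highest concentration. GI50 marks 50% less growth.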 Activity calls are given as the source filed them. No stated cut-off is given here; in the data, active = GI50 up to about 1.1 µM and inactive = higher.
Experiments:
Assay in all cases: inhibition of tumour cell growth, NCI panel, 48 h
A498 = test system: A498
A549 = test system: A549
CAKI-1 = test system: CAKI-1
CCRF-CEM = test system: CCRF-CEM
COLO 205 = test system: COLO 205
DLD-1 = test system: DLD-1
DMS-114 = test system: DMS-114
DMS-273 = test system: DMS-273
EKVX = test system: EKVX
HCC 2998 = test system: HCC 2998
HCT-116 = test system: HCT-116
HCT-15 = test system: HCT-15
HL-60 = test system: HL-60
HOP-18 = test system: HOP-18
HOP-62 = test system: HOP-62
HOP-92 = test system: HOP-92
HT-29 = test system: HT-29
IGROV-1 = test system: IGROV-1
K562 = test system: K562
KM-20L2 = test system: KM-20L2
KM12 = test system: KM12
LOX IMVI = test system: LOX IMVI
M19-MEL = test system: M19-MEL
MCF7 = test system: MCF7
MOLT-4 = test system: MOLT-4
Malme-3M = test system: Malme-3M
NCI-H226 = test system: NCI-H226
NCI-H23 = test system: NCI-H23
NCI-H460 = test system: NCI-H460
NCI-H522 = test system: NCI-H522
NCI/ADR-RES = test system: NCI/ADR-RES
OVCAR-3 = test system: OVCAR-3
OVCAR-4 = test system: OVCAR-4
OVCAR-5 = test system: OVCAR-5
OVCAR-8 = test system: OVCAR-8
RPMI-8226 = test system: RPMI-8226
RXF 393 = test system: RXF 393
SF-268 = test system: SF-268
SF-295 = test system: SF-295
SF-539 = test system: SF-539
SK-MEL-28 = test system: SK-MEL-28
SK-MEL-2 = test system: SK-MEL-2
SK-MEL-5 = test system: SK-MEL-5
SK-OV-3 = test system: SK-OV-3
SN12C = test system: SN12C
SNB-19 = test system: SNB-19
SNB-75 = test system: SNB-75
SNB-78 = test system: SNB-78
SW-620 = test system: SW-620
U-251 = test system: U-251
UACC-257 = test system: UACC-257
UACC-62 = test system: UACC-62
UO-31 = test system: UO-31
XF498 = test system: XF498
786-0 = test system: 786-0
ACHN = test system: ACHN
LXFL 529 = test system: LXFL 529
M14 = test system: M14
TK-10 = test system: TK-10
SR = test system: SR

SMILES: CCOC(=O)/C=C/c1c(C)[nH]c(=O)[nH]c1=O
- GI50 (A498): > 250 µM (inactive)
- GI50 (A549): > 250 µM (inactive)
- GI50 (CAKI-1): 191 µM (inactive)
- GI50 (CCRF-CEM): > 250 µM (inactive)
- GI50 (COLO 205): > 250 µM (inactive)
- GI50 (DLD-1): > 250 µM (inactive)
- GI50 (DMS-114): 120 µM (inactive)
- GI50 (DMS-273): > 176 µM (inactive)
- GI50 (EKVX): > 250 µM (inactive)
- GI50 (HCC 2998): > 250 µM (inactive)
- GI50 (HCT-116): > 250 µM (inactive)
- GI50 (HCT-15): > 250 µM
- GI50 (HL-60): > 250 µM (inactive)
- GI50 (HOP-18): > 250 µM (inactive)
- GI50 (HOP-62): > 250 µM (inactive)
- GI50 (HOP-92): 19.1 µM (inactive)
- GI50 (HT-29): > 250 µM (inactive)
- GI50 (IGROV-1): > 250 µM (inactive)
- GI50 (K562): > 250 µM (inactive)
- GI50 (KM-20L2): > 250 µM (inactive)
- GI50 (KM12): > 250 µM (inactive)
- GI50 (LOX IMVI): > 250 µM (inactive)
- GI50 (M19-MEL): > 250 µM (inactive)
- GI50 (MCF7): 244 µM (inactive)
- GI50 (MOLT-4): > 250 µM (inactive)
- GI50 (Malme-3M): > 250 µM (inactive)
- GI50 (NCI-H226): > 250 µM (inactive)
- GI50 (NCI-H23): > 250 µM (inactive)
- GI50 (NCI-H460): > 250 µM (inactive)
- GI50 (NCI-H522): 102 µM (inactive)
- GI50 (NCI/ADR-RES): > 250 µM (inactive)
- GI50 (OVCAR-3): > 242 µM (inactive)
- GI50 (OVCAR-4): > 158 µM (inactive)
- GI50 (OVCAR-5): > 94.4 µM (inactive)
- GI50 (OVCAR-8): 212 µM (inactive)
- GI50 (RPMI-8226): > 250 µM (inactive)
- GI50 (RXF 393): > 237 µM (inactive)
- GI50 (SF-268): > 250 µM (inactive)
- GI50 (SF-295): > 250 µM (inactive)
- GI50 (SF-539): > 250 µM (inactive)
- GI50 (SK-MEL-28): > 250 µM (inactive)
- GI50 (SK-MEL-2): > 250 µM (inactive)
- GI50 (SK-MEL-5): > 250 µM (inactive)
- GI50 (SK-OV-3): > 141 µM (inactive)
- GI50 (SN12C): > 250 µM (inactive)
- GI50 (SNB-19): > 250 µM (inactive)
- GI50 (SNB-75): > 250 µM (inactive)
- GI50 (SNB-78): > 250 µM (inactive)
- GI50 (SW-620): > 250 µM (inactive)
- GI50 (U-251): > 250 µM (inactive)
- GI50 (UACC-257): > 250 µM (inactive)
- GI50 (UACC-62): > 250 µM (inactive)
- GI50 (UO-31): > 250 µM (inactive)
- GI50 (XF498): > 250 µM (inactive)

SMILES: CCOP(=O)(OCC)C1C(=O)O[C@H]2CCCC[C@@H]12 (stereo not given in full)
- GI50 (786-0): > 100 µM (inactive)
- GI50 (A498): > 100 µM (inactive)
- GI50 (A549): > 100 µM (inactive)
- GI50 (ACHN): > 100 µM (inactive)
- GI50 (CAKI-1): > 100 µM (inactive)
- GI50 (CCRF-CEM): > 100 µM (inactive)
- GI50 (COLO 205): > 100 µM (inactive)
- GI50 (DLD-1): > 100 µM (inactive)
- GI50 (DMS-114): > 100 µM (inactive)
- GI50 (DMS-273): > 100 µM (inactive)
- GI50 (EKVX): > 100 µM (inactive)
- GI50 (HCC 2998): > 100 µM (inactive)
- GI50 (HCT-116): > 100 µM (inactive)
- GI50 (HCT-15): > 100 µM
- GI50 (HOP-18): 40.6 µM (inactive)
- GI50 (HOP-62): > 100 µM (inactive)
- GI50 (HT-29): > 100 µM (inactive)
- GI50 (IGROV-1): > 100 µM (inactive)
- GI50 (K562): > 100 µM (inactive)
- GI50 (KM-20L2): > 100 µM (inactive)
- GI50 (KM12): > 100 µM (inactive)
- GI50 (LOX IMVI): > 100 µM (inactive)
- GI50 (LXFL 529): > 100 µM (inactive)
- GI50 (M14): > 100 µM (inactive)
- GI50 (M19-MEL): > 100 µM (inactive)
- GI50 (MOLT-4): > 100 µM (inactive)
- GI50 (Malme-3M): > 100 µM (inactive)
- GI50 (NCI-H23): > 100 µM (inactive)
- GI50 (NCI-H460): > 100 µM (inactive)
- GI50 (OVCAR-3): > 100 µM (inactive)
- GI50 (OVCAR-4): > 100 µM (inactive)
- GI50 (OVCAR-5): > 100 µM (inactive)
- GI50 (OVCAR-8): > 100 µM (inactive)
- GI50 (RPMI-8226): > 100 µM (inactive)
- GI50 (RXF 393): > 100 µM (inactive)
- GI50 (SF-268): > 100 µM (inactive)
- GI50 (SF-295): > 100 µM (inactive)
- GI50 (SF-539): > 100 µM (inactive)
- GI50 (SK-MEL-28): > 100 µM (inactive)
- GI50 (SK-MEL-2): > 100 µM (inactive)
- GI50 (SK-MEL-5): > 100 µM (inactive)
- GI50 (SK-OV-3): > 100 µM (inactive)
- GI50 (SN12C): > 100 µM (inactive)
- GI50 (SNB-19): > 100 µM (inactive)
- GI50 (SNB-75): > 100 µM (inactive)
- GI50 (SNB-78): > 100 µM (inactive)
- GI50 (SW-620): > 100 µM (inactive)
- GI50 (TK-10): > 100 µM (inactive)
- GI50 (U-251): > 100 µM (inactive)
- GI50 (UACC-257): > 100 µM (inactive)
- GI50 (UACC-62): > 100 µM (inactive)
- GI50 (XF498): > 100 µM (inactive)

SMILES: CC(=O)Nc1ccc(C(=O)N2N=C(C)/C(=C\c3c(O)ccc4ccccc34)C2=O)cc1
- GI50 (786-0): > 100 µM (inactive)
- GI50 (A549): > 100 µM (inactive)
- GI50 (ACHN): 30.6 µM (inactive)
- GI50 (CAKI-1): > 100 µM (inactive)
- GI50 (CCRF-CEM): 26.8 µM (inactive)
- GI50 (COLO 205): > 100 µM (inactive)
- GI50 (DLD-1): 30.4 µM (inactive)
- GI50 (DMS-114): 54.2 µM (inactive)
- GI50 (DMS-273): > 100 µM (inactive)
- GI50 (EKVX): > 100 µM (inactive)
- GI50 (HCC 2998): > 100 µM (inactive)
- GI50 (HCT-116): 93.5 µM (inactive)
- GI50 (HCT-15): 18.4 µM
- GI50 (HL-60): 57.4 µM (inactive)
- GI50 (HOP-18): 83 µM (inactive)
- GI50 (HOP-62): > 100 µM (inactive)
- GI50 (HT-29): > 100 µM (inactive)
- GI50 (K562): 74.8 µM (inactive)
- GI50 (KM12): > 100 µM (inactive)
- GI50 (LOX IMVI): 59.8 µM (inactive)
- GI50 (M14): 85.1 µM (inactive)
- GI50 (M19-MEL): 45.6 µM (inactive)
- GI50 (MOLT-4): 31.7 µM (inactive)
- GI50 (Malme-3M): 24 µM (inactive)
- GI50 (NCI-H226): 39.5 µM (inactive)
- GI50 (NCI-H23): > 100 µM (inactive)
- GI50 (NCI-H460): > 100 µM (inactive)
- GI50 (NCI-H522): 67 µM (inactive)
- GI50 (OVCAR-3): 91.8 µM (inactive)
- GI50 (OVCAR-4): > 100 µM (inactive)
- GI50 (OVCAR-5): > 100 µM (inactive)
- GI50 (OVCAR-8): 88.1 µM (inactive)
- GI50 (RPMI-8226): 56.8 µM (inactive)
- GI50 (SF-268): 56 µM (inactive)
- GI50 (SF-295): 40.5 µM (inactive)
- GI50 (SF-539): 56.4 µM (inactive)
- GI50 (SK-MEL-28): 57.8 µM (inactive)
- GI50 (SK-MEL-2): 29.8 µM (inactive)
- GI50 (SK-MEL-5): 35.4 µM (inactive)
- GI50 (SN12C): 48.8 µM (inactive)
- GI50 (SNB-19): > 100 µM (inactive)
- GI50 (SNB-75): > 100 µM (inactive)
- GI50 (SNB-78): > 100 µM (inactive)
- GI50 (SR): 53.3 µM (inactive)
- GI50 (SW-620): 75.2 µM (inactive)
- GI50 (TK-10): 0.1 µM (active)
- GI50 (UACC-257): > 100 µM (inactive)
- GI50 (UO-31): 39 µM (inactive)
- GI50 (XF498): 28.9 µM (inactive)
